Source: patent US5428015A, “Vasoactive intestinal polypeptide analogues and use thereof” (Sana Kagaku Kenkyusho Co., Ltd., priority 1990, dated 1995)

Assays:
[1] = system: PCA reaction; experiment: Anti-allergic action: passive cutaneous anaphylaxis test (PCA reaction); assay type: in vivo; details: rat, injected into a vein
Method: A rat was immunized with egg-albumin suspended in aluminum hydroxide gel in a conventional manner and a blood letting was carried out to obtain immune serum rich in IgE.
A male rat was anethtized with ether and hairs on back were sheared to intradenally inject by 0.1 ml of the immune serum solution described in Item (1) and diluted to 5-folds, at both sides with a certain distance from a medial line on the back. After 72 hours, a mixed solution of egg albumin (5 mg/kg), 2% Evans blue and a test compound ([L-Leu^17 ]-VIP-Hse or pure native VIP) or disodium cromoglycate was injected into a vein. After 30 minutes from an occasion of PCA reaction, the experimental animal was killed and pealed-off the skin to obtain a piece of the skin dyed with the coloring matter.
The coloring matter was extracted in accordance with the method described by Katayama ["Microbio. Immunol.", Vol. 22, No. 2, pages 89 (1978)] and an amount thereof was measured at 620 nm in wave length to calculate an inhibition of the PCA reaction.

[2] = system: arterial pressure; experiment: Hypotensing action: arterial pressure after injection in femoral artery; assay type: in vivo; details: anethtized beagle dog, 0.02-10 μg/kg
Method: In a femoral artery of anethtized beagle dog, each of the VIP analogues as Test Samples was injected in a dose of 0.02-10 μg/kg and measured an arterial pressure to prepare a chart showing a relation between the dose and change in blood pressure and check an amount of dose which shall cause a reduction of 15 mmHg in blood pressure.

Row | Compound | Inhibition (%) of the PCA reaction ([1]; dose 0.01 mg/kg) [%] | Inhibition (%) of the PCA reaction ([1]; dose 0.1 mg/kg) [%] | Inhibition (%) of the PCA reaction ([1]; dose 1.0 mg/kg) [%] | amount of dose causing a reduction of 15 mmHg in blood pressure, relative value (native VIP = 100%) [2] [%]
1 | O=C([O-])c1cc(=O)c2c(OCC(O)COc3cccc4oc(C(=O)[O-])cc(=O)c34)cccc2o1.[Na+].[Na+] [Disodium cromoglycate] | 5 | 28 | 31 | 
2 | CC[C@H](C)[C@H](NC(=O)[C@H](CO)NC(=O)[C@H](CC(N)=O)NC(=O)[C@H](CC(C)C)NC(=O)[C@H](Cc1ccc(O)cc1)NC(=O)[C@H](CCCCN)NC(=O)[C@H](CCCCN)NC(=O)[C@@H](NC(=O)[C@H](C)NC(=O)[C@H](CCSC)NC(=O)[C@H](CCC(N)=O)NC(=O)[C@H](CCCCN)NC(=O)[C@H](CCCNC(=N)N)NC(=O)[C@H](CC(C)C)NC(=O)[C@H](CCCNC(=N)N)NC(=O)[C@@H](NC(=O)[C@H](Cc1ccc(O)cc1)NC(=O)[C@H](CC(N)=O)NC(=O)[C@H](CC(=O)O)NC(=O)[C@@H](NC(=O)[C@H](Cc1ccccc1)NC(=O)[C@@H](NC(=O)[C@H](C)NC(=O)[C@H](CC(=O)O)NC(=O)[C@H](CO)NC(=O)[C@@H](N)Cc1c[nH]cn1)C(C)C)[C@@H](C)O)[C@@H](C)O)C(C)C)C(=O)N[C@@H](CC(C)C)C(=O)N[C@@H](CC(N)=O)C(N)=O [Native VIP, vasoactive intestinal polypeptide] | 23 | 72 | 67 | 100
3 | [L-Leu^17 ]-VIP-Hse-NH(CH2)9 CH3 [[L-Leu^17]-VIP-NH(CH2)9 CH3] |  |  |  | 68
